Measured values as given in ChEMBL document CHEMBL5634071, “Fluorine in anti-HIV drugs approved by FDA from 1981 to 2023” (Eur J Med Chem, 2023).

How the values were obtained:
[1] = tested on: Human immunodeficiency virus 1; assay: Antiviral activity against HIV-1 SK-1 infected in human CEM-SS cells assessed as reduction in virus-induced cytopathic effect by XTT assay; assay type: functional, organism-based; details: Human immunodeficiency virus 1, SK-1, CEM-SS
[2] = tested on: Human immunodeficiency virus 1; assay: Antiviral activity against HIV-1 KELL infected in human CEM-SS cells assessed as reduction in virus-induced cytopathic effect by XTT assay; assay type: functional, organism-based; details: Human immunodeficiency virus 1, KELL
[3] = tested on: Human immunodeficiency virus 1; assay: Antiviral activity against HIV-1 TP-1 infected in human CEM-SS cells assessed as reduction in virus-induced cytopathic effect by XTT assay; assay type: functional, organism-based; details: Human immunodeficiency virus 1, TP-1, CEM-SS
[4] = tested on: Human immunodeficiency virus 1; assay: Antiviral activity against HIV-1 214 infected in human CEM-SS cells assessed as reduction in virus-induced cytopathic effect by XTT assay; assay type: functional, organism-based; details: Human immunodeficiency virus 1, 214, CEM-SS
[5] = tested on: Human immunodeficiency virus 1; assay: Antiviral activity against HIV-1 G infected in human CEM-SS cells assessed as reduction in virus-induced cytopathic effect by XTT assay; assay type: functional, organism-based; details: Human immunodeficiency virus 1, G
[6] = tested on: Human immunodeficiency virus 1; assay: Antiviral activity against HIV-1 PM16 infected in human CEM-SS cells assessed as reduction in virus-induced cytopathic effect by XTT assay; assay type: functional, organism-based; details: Human immunodeficiency virus 1, PM16, CEM-SS
[7] = tested on: Human immunodeficiency virus 1; assay: Antiviral activity against HIV-1 205 infected in human CEM-SS cells assessed as reduction in virus-induced cytopathic effect by XTT assay; assay type: functional, organism-based; details: Human immunodeficiency virus 1, 205, CEM-SS
[8] = tested on: Human immunodeficiency virus 1; assay: Antiviral activity against HIV-1 LAV infected in human CEM-SS cells assessed as reduction in virus-induced cytopathic effect by XTT assay; assay type: functional, organism-based; details: Human immunodeficiency virus 1, LAV
[9] = tested on: Human immunodeficiency virus 1; assay: Antiviral activity against HIV-1 infected in human MT4 cells assessed as reduction in virus induced cytopathic effect; assay type: functional, organism-based; details: Human immunodeficiency virus 1, MT4
[10] = Inhibition of HIV-1 integrase by multiple well plate integration assay; parameters: species or system Human immunodeficiency virus
[11] = Inhibition of HIV integrase strand transfer activity; parameters: species or system Human immunodeficiency virus
[12] = Metabolic stability in rhesus monkey hepatocytes assessed as half-life; assay type: ADME, cell-based, Macaca mulatta, Hepatocyte
[13] = tested on: Human immunodeficiency virus 1; assay: Antiviral activity against VSV-G pseudotyped HIV-1 infected in HEK293T cells assessed as inhibition of early stage viral replication preincubated with cells for 30 mins followed by viral infection for 3 hrs and measured 48 hrs after media replacement with compound by luciferase assay; assay type: functional, organism-based; details: Human immunodeficiency virus 1, HEK-293T
[14] = Cytotoxicity against HEK293T cells incubated for 72 hrs by MTT assay; assay type: toxicity, cell-based, HEK-293T; details: human
[15] = tested on: Human immunodeficiency virus 1; assay: Antiviral activity HIV-1 infected in HEK293T cells assessed as inhibition of late stage viral replication; assay type: functional, organism-based; details: Human immunodeficiency virus 1, HEK-293T
[16] = tested on: Human immunodeficiency virus 1; assay: Antiviral activity against HIV-1 infected in human PBMC; assay type: functional, organism-based; details: Human immunodeficiency virus 1, PBMC
[17] = molecular target: Human immunodeficiency virus type 1 Gag protein (Human immunodeficiency virus 1, UniProt Q77YG1); assay: Binding affinity to HIV1 Gag assessed as dissociation constant
[18] = tested on: Human immunodeficiency virus 1; assay: Antiviral activity against HIV-1 IIIB infected in human H9 cells; assay type: functional, organism-based; details: Human immunodeficiency virus 1, IIIB
[19] = Binding affinity to HIV protease assessed as inhibition constant; parameters: species or system Human immunodeficiency virus
[20] = tested on: Human immunodeficiency virus; assay: Antiviral activity against HIV; assay type: functional, organism-based; details: Human immunodeficiency virus 1
[21] = molecular target: Human immunodeficiency virus type 1 protease (Human immunodeficiency virus 1, UniProt Q72874); assay: Inhibition of HIV-1 protease expressed in Escherichia coli incubated for 90 mins by fluorescence based analysis
[22] = Oral bioavailability in rat; details: in vivo
[23] = Cytotoxicity against lymphoblastoid cell (unknown origin); details: lymphoblastoid cells
[24] = tested on: Human immunodeficiency virus 1; assay: Antiviral activity against HIV-1 infected in human HeLa-MAGI-CCR5 cells; details: Human immunodeficiency virus 1, HeLa-MAGI-CCR5
[25] = Cytotoxicity against human CEM cells measured after 6 days; details: CEM cells (CCRF-CEM)
[26] = tested on: Human immunodeficiency virus 1; assay: Antiviral activity against HIV-1 infected in lymphoblastoid cell (unknown origin); details: Human immunodeficiency virus 1, Lymphoblastoid cell
[27] = Oral bioavailability in cynomolgus monkey; details: in vivo
[28] = Cytotoxicity against PBMC (unknown origin)
[29] = tested on: Human immunodeficiency virus 1; assay: Antiviral activity against HIV-1 infected in PBMC (unknown origin); details: Human immunodeficiency virus 1, PBMC
[30] = tested on: Human immunodeficiency virus 1; assay: Antiviral activity against HIV-1 LAV infected in human CEM cells; assay type: functional, organism-based; details: Human immunodeficiency virus 1, LAV, CCRF-CEM
[31] = Cytotoxicity against human HeLa-MAGI-CCR5 cells
[32] = Oral bioavailability in mouse; details: in vivo
[33] = tested on: Human immunodeficiency virus 1; assay: Antiviral activity against HIV-1 IIIB infected in human MT4 cells incubated for 7 days by ELISA; assay type: functional, organism-based; details: Human immunodeficiency virus 1, IIIB, MT4, 168 h

`O=S1(c2ccccc2)=NC(=S)Nc2ccccc21` (centres undefined) showed an IC50 [1] of 950 nM, an IC50 [2] of 950 nM and an IC50 [3] of 950 nM. For the same compound, the IC50 [4] was 950 nM, the IC50 [5] was 950 nM and the IC50 [6] was 950 nM. It also gave an IC50 [7] of 950 nM and an IC50 [8] of 950 nM.
Work on `Cc1c(Sc2ccccc2)n(COCCO)c(=O)[nH]c1=O` [HEPT] yielded an IC50 [9] of 7000 nM.
`O=C(O)/C(O)=C/C(=O)C1C=Nc2ccc(Cl)cc21` (centres undefined) showed an IC50 [10] of 2300 nM.
`O=C(NCc1c(F)cc(F)cc1F)c1cn2c(c(O)c1=O)C(=O)N1[C@H]3CC[C@H](C3)O[C@@H]1C2` [BICTEGRAVIR] gave an IC50 [11] of 2.4 nM.
`CC(C)(C#Cc1ccc(-c2ccc(Cl)c3c(NS(C)(=O)=O)nn(CC(F)(F)F)c23)c([C@H](Cc2cc(F)cc(F)c2)NC(=O)Cn2nc(C(F)(F)F)c3c2C(F)(F)[C@@H]2C[C@H]32)n1)S(C)(=O)=O` showed a half-life [12] of 202 h, an IC50 [13] of 0.055 nM and a CC50 at 72 h [14] of over 50000 nM. For the same compound, the IC50 [15] was 0.314 nM, the IC50 [16] was 0.05 nM and the Kd [17] was 1.1 nM.
Work on `CCC[C@@]1(CCc2ccccc2)CC(O)=C([C@H](CC)c2cccc(NS(=O)(=O)c3ccc(C(F)(F)F)cn3)c2)C(=O)O1` yielded an IC50 [18] of 30 nM, an IC90 [18] of 100 nM and a Ki [19] of 8 nM. It also gave an IC50 [20] of 30 nM.
In the case of `CCCC(CCc1ccccc1)c1cc(O)c(C(CC)c2ccccc2)c(=O)o1` (centres undefined), the Ki [21] is reported as 35 nM.
With `Nc1nc(=O)n([C@@H]2CS[C@H](CO)O2)cc1F` [EMTRICITABINE] the bioavailability [22] was about 58%, the CC50 [23] was over 200000 nM and the IC50 [24] was 1 nM. It also gave a CC50 at 144 h [25] of over 100000 nM, an IC50 [26] of 1 nM and a bioavailability [27] of about 58%. It also gave a CC50 [28] of over 200000 nM, an IC50 [29] of 1 nM and an IC50 [30] of 9 nM. For the same compound, the CC50 [31] was over 200000 nM and the bioavailability [32] was about 58%.
In the case of `CCC(Cc1ccccc1)c1cc(O)c(C(CC)c2ccccc2)c(=O)o1` (centres undefined), the IC50 [33] is reported as 3000 nM.
